Results reported in ChEMBL document CHEMBL5120927, “LEGO-Lipophosphonoxins: A Novel Approach in Designing Membrane Targeting Antimicrobials” (J Med Chem, 2022).

tested on: Enterococcus faecalis; experiment: Antibacterial activity against Enterococcus faecalis ATCC 29212 = CCM 4224 assessed as inhibition of bacterial growth incubated for 24 hrs by microdilution assay; format: functional; conditions: not given

SMILES	MIC [µg/mL]
CCCCC/C=C\CCOP(=O)(CCN(CCCN)CCCN)OCCCCCOP(=O)(CCN(CCCN)CCCN)OCC/C=C\CCCCC.Cl.Cl.Cl.Cl.Cl.Cl (configuration not stated)	4
CC(C)COP(=O)(CCN(CCCN)CCCN)OCCCCCCCCCCCCOP(=O)(CCN(CCCN)CCCN)OCC(C)C.Cl.Cl.Cl.Cl.Cl.Cl (configuration not stated)	32
CCCCOP(=O)(CCN(CCN)CCN)OCCCCCCCCCCOP(=O)(CCN(CCN)CCN)OCCCC.Cl.Cl.Cl.Cl.Cl.Cl (configuration not stated)	64

tested on: Staphylococcus aureus; experiment: Antibacterial activity against Staphylococcus aureus ATCC 29213 = CCM 4223 assessed as inhibition of bacterial growth incubated for 24 hrs by microdilution assay; format: functional; conditions: not given

SMILES	MIC [µg/mL]
CCCCC/C=C\CCOP(=O)(CCN(CCCN)CCCN)OCCCCCOP(=O)(CCN(CCCN)CCCN)OCC/C=C\CCCCC.Cl.Cl.Cl.Cl.Cl.Cl (configuration not stated)	1
CC(C)COP(=O)(CCN(CCCN)CCCN)OCCCCCCCCCCCCOP(=O)(CCN(CCCN)CCCN)OCC(C)C.Cl.Cl.Cl.Cl.Cl.Cl (configuration not stated)	4
CCCCOP(=O)(CCN(CCN)CCN)OCCCCCCCCCCOP(=O)(CCN(CCN)CCN)OCCCC.Cl.Cl.Cl.Cl.Cl.Cl (configuration not stated)	64

tested on: Staphylococcus aureus; experiment: Antibacterial activity against Staphylococcus aureus ATCC 29213 = CCM 4223 assessed as inhibition of bacterial growth incubated for 24 hrs in presence of BSA by microdilution assay; format: functional; conditions: not given

SMILES	MIC [µg/mL]
CCCCC/C=C\CCOP(=O)(CCN(CCCN)CCCN)OCCCCCOP(=O)(CCN(CCCN)CCCN)OCC/C=C\CCCCC.Cl.Cl.Cl.Cl.Cl.Cl (configuration not stated)	2
CC(C)COP(=O)(CCN(CCCN)CCCN)OCCCCCCCCCCCCOP(=O)(CCN(CCCN)CCCN)OCC(C)C.Cl.Cl.Cl.Cl.Cl.Cl (configuration not stated)	16
CCCCOP(=O)(CCN(CCN)CCN)OCCCCCCCCCCOP(=O)(CCN(CCN)CCN)OCCCC.Cl.Cl.Cl.Cl.Cl.Cl (configuration not stated)	> 128

tested on: Escherichia coli; experiment: Antibacterial activity against Escherichia coli ATCC 25922 = CCM 3954 assessed as inhibition of bacterial growth incubated for 24 hrs by microdilution assay; format: functional; conditions: not given

SMILES	MIC [µg/mL]
CCCCC/C=C\CCOP(=O)(CCN(CCCN)CCCN)OCCCCCOP(=O)(CCN(CCCN)CCCN)OCC/C=C\CCCCC.Cl.Cl.Cl.Cl.Cl.Cl (configuration not stated)	2
CC(C)COP(=O)(CCN(CCCN)CCCN)OCCCCCCCCCCCCOP(=O)(CCN(CCCN)CCCN)OCC(C)C.Cl.Cl.Cl.Cl.Cl.Cl (configuration not stated)	128
CCCCOP(=O)(CCN(CCN)CCN)OCCCCCCCCCCOP(=O)(CCN(CCN)CCN)OCCCC.Cl.Cl.Cl.Cl.Cl.Cl (configuration not stated)	64

tested on: Escherichia coli; experiment: Antibacterial activity against Escherichia coli ATCC 25922 = CCM 3954 assessed as inhibition of bacterial growth incubated for 24 hrs in presence of BSA by microdilution assay; format: functional; conditions: not given

SMILES	MIC [µg/mL]
CCCCC/C=C\CCOP(=O)(CCN(CCCN)CCCN)OCCCCCOP(=O)(CCN(CCCN)CCCN)OCC/C=C\CCCCC.Cl.Cl.Cl.Cl.Cl.Cl (configuration not stated)	1
CC(C)COP(=O)(CCN(CCCN)CCCN)OCCCCCCCCCCCCOP(=O)(CCN(CCCN)CCCN)OCC(C)C.Cl.Cl.Cl.Cl.Cl.Cl (configuration not stated)	> 128
CCCCOP(=O)(CCN(CCN)CCN)OCCCCCCCCCCOP(=O)(CCN(CCN)CCN)OCCCC.Cl.Cl.Cl.Cl.Cl.Cl (configuration not stated)	> 128

tested on: Pseudomonas aeruginosa; experiment: Antibacterial activity against Pseudomonas aeruginosa ATCC 27853 = CCM 3955 assessed as inhibition of bacterial growth incubated for 24 hrs by microdilution assay; format: functional; conditions: not given

SMILES	MIC [µg/mL]
CCCCC/C=C\CCOP(=O)(CCN(CCCN)CCCN)OCCCCCOP(=O)(CCN(CCCN)CCCN)OCC/C=C\CCCCC.Cl.Cl.Cl.Cl.Cl.Cl (configuration not stated)	4
CC(C)COP(=O)(CCN(CCCN)CCCN)OCCCCCCCCCCCCOP(=O)(CCN(CCCN)CCCN)OCC(C)C.Cl.Cl.Cl.Cl.Cl.Cl (configuration not stated)	32
CCCCOP(=O)(CCN(CCN)CCN)OCCCCCCCCCCOP(=O)(CCN(CCN)CCN)OCCCC.Cl.Cl.Cl.Cl.Cl.Cl (configuration not stated)	64

tested on: not listed separately; experiment: Hemolytic activity in human RBC assessed as haemoglobin release measured after 3 hr; format: toxicity, cell-based, Erythrocyte; conditions: red blood cells (erythrocytes)

SMILES	HC50 at 3 h [µg/mL]
CCCCC/C=C\CCOP(=O)(CCN(CCCN)CCCN)OCCCCCOP(=O)(CCN(CCCN)CCCN)OCC/C=C\CCCCC.Cl.Cl.Cl.Cl.Cl.Cl (configuration not stated)	> 500
CC(C)COP(=O)(CCN(CCCN)CCCN)OCCCCCCCCCCCCOP(=O)(CCN(CCCN)CCCN)OCC(C)C.Cl.Cl.Cl.Cl.Cl.Cl (configuration not stated)	170
CCCCOP(=O)(CCN(CCN)CCN)OCCCCCCCCCCOP(=O)(CCN(CCN)CCN)OCCCC.Cl.Cl.Cl.Cl.Cl.Cl (configuration not stated)	55

tested on: not listed separately; experiment: Gradient chromatographic hydrophobicity index of the compound at pH 3.7 by HPLC analysis; format: ADME; conditions: not given

SMILES	CHI
CCCCC/C=C\CCOP(=O)(CCN(CCCN)CCCN)OCCCCCOP(=O)(CCN(CCCN)CCCN)OCC/C=C\CCCCC.Cl.Cl.Cl.Cl.Cl.Cl (configuration not stated)	37.2
CC(C)COP(=O)(CCN(CCCN)CCCN)OCCCCCCCCCCCCOP(=O)(CCN(CCCN)CCCN)OCC(C)C.Cl.Cl.Cl.Cl.Cl.Cl (configuration not stated)	31.4
CCCCOP(=O)(CCN(CCN)CCN)OCCCCCCCCCCOP(=O)(CCN(CCN)CCN)OCCCC.Cl.Cl.Cl.Cl.Cl.Cl (configuration not stated)	34.2

tested on: Staphylococcus epidermidis; experiment: Antibacterial activity against Staphylococcus epidermidis CCM 7221 assessed as inhibition of bacterial growth incubated for 24 hrs by microdilution assay; format: functional; conditions: not given

SMILES	MIC [µg/mL]
CCCCC/C=C\CCOP(=O)(CCN(CCCN)CCCN)OCCCCCOP(=O)(CCN(CCCN)CCCN)OCC/C=C\CCCCC.Cl.Cl.Cl.Cl.Cl.Cl (configuration not stated)	1
CC(C)COP(=O)(CCN(CCCN)CCCN)OCCCCCCCCCCCCOP(=O)(CCN(CCCN)CCCN)OCC(C)C.Cl.Cl.Cl.Cl.Cl.Cl (configuration not stated)	1
CCCCOP(=O)(CCN(CCN)CCN)OCCCCCCCCCCOP(=O)(CCN(CCN)CCN)OCCCC.Cl.Cl.Cl.Cl.Cl.Cl (configuration not stated)	64

tested on: Staphylococcus aureus; experiment: Antibacterial activity against methicillin resistant Staphylococcus aureus 4591/A assessed as reduction in microbial growth incubated for 24 hrs by microdilution assay; format: functional; conditions: not given

SMILES	MIC [µg/mL]
CCCCC/C=C\CCOP(=O)(CCN(CCCN)CCCN)OCCCCCOP(=O)(CCN(CCCN)CCCN)OCC/C=C\CCCCC.Cl.Cl.Cl.Cl.Cl.Cl (configuration not stated)	1
CC(C)COP(=O)(CCN(CCCN)CCCN)OCCCCCCCCCCCCOP(=O)(CCN(CCCN)CCCN)OCC(C)C.Cl.Cl.Cl.Cl.Cl.Cl (configuration not stated)	4
CCCCOP(=O)(CCN(CCN)CCN)OCCCCCCCCCCOP(=O)(CCN(CCN)CCN)OCCCC.Cl.Cl.Cl.Cl.Cl.Cl (configuration not stated)	128

tested on: Escherichia coli; experiment: Antibacterial activity against multidrug-resistant Escherichia coli CE5556 expressing CTX-M-15 assessed as reduction in microbial growth incubated for 24 hrs by microdilution assay; format: functional; conditions: not given

SMILES	MIC [µg/mL]
CCCCC/C=C\CCOP(=O)(CCN(CCCN)CCCN)OCCCCCOP(=O)(CCN(CCCN)CCCN)OCC/C=C\CCCCC.Cl.Cl.Cl.Cl.Cl.Cl (configuration not stated)	1
CC(C)COP(=O)(CCN(CCCN)CCCN)OCCCCCCCCCCCCOP(=O)(CCN(CCCN)CCCN)OCC(C)C.Cl.Cl.Cl.Cl.Cl.Cl (configuration not stated)	> 128
CCCCOP(=O)(CCN(CCN)CCN)OCCCCCCCCCCOP(=O)(CCN(CCN)CCN)OCCCC.Cl.Cl.Cl.Cl.Cl.Cl (configuration not stated)	> 128

tested on: Enterococcus faecium; experiment: Antibacterial activity against vancomycin resistant Enterococcus faecium 419/ANA assessed as reduction in microbial growth incubated for 24 hrs by microdilution assay; format: functional; conditions: not given

SMILES	MIC [µg/mL]
CCCCC/C=C\CCOP(=O)(CCN(CCCN)CCCN)OCCCCCOP(=O)(CCN(CCCN)CCCN)OCC/C=C\CCCCC.Cl.Cl.Cl.Cl.Cl.Cl (configuration not stated)	32
CC(C)COP(=O)(CCN(CCCN)CCCN)OCCCCCCCCCCCCOP(=O)(CCN(CCCN)CCCN)OCC(C)C.Cl.Cl.Cl.Cl.Cl.Cl (configuration not stated)	128
CCCCOP(=O)(CCN(CCN)CCN)OCCCCCCCCCCOP(=O)(CCN(CCN)CCN)OCCCC.Cl.Cl.Cl.Cl.Cl.Cl (configuration not stated)	128

tested on: Pseudomonas aeruginosa; experiment: Antibacterial activity against multidrug-resistant Pseudomonas aeruginosa assessed as reduction in microbial growth incubated for 24 hrs by microdilution assay; format: functional; conditions: not given

SMILES	MIC [µg/mL]
CCCCC/C=C\CCOP(=O)(CCN(CCCN)CCCN)OCCCCCOP(=O)(CCN(CCCN)CCCN)OCC/C=C\CCCCC.Cl.Cl.Cl.Cl.Cl.Cl (configuration not stated)	4
CC(C)COP(=O)(CCN(CCCN)CCCN)OCCCCCCCCCCCCOP(=O)(CCN(CCCN)CCCN)OCC(C)C.Cl.Cl.Cl.Cl.Cl.Cl (configuration not stated)	16
CCCCOP(=O)(CCN(CCN)CCN)OCCCCCCCCCCOP(=O)(CCN(CCN)CCN)OCCCC.Cl.Cl.Cl.Cl.Cl.Cl (configuration not stated)	128

tested on: not listed separately; experiment: Cytotoxicity against human HepG2 cells assessed as reduction in cell viability; format: toxicity, cell-based; conditions: not given

SMILES	CC50 [µM]
CCCCC/C=C\CCOP(=O)(CCN(CCCN)CCCN)OCCCCCOP(=O)(CCN(CCCN)CCCN)OCC/C=C\CCCCC.Cl.Cl.Cl.Cl.Cl.Cl (configuration not stated)	97.8
CC(C)COP(=O)(CCN(CCCN)CCCN)OCCCCCCCCCCCCOP(=O)(CCN(CCCN)CCCN)OCC(C)C.Cl.Cl.Cl.Cl.Cl.Cl (configuration not stated)	56.2
CCCCOP(=O)(CCN(CCN)CCN)OCCCCCCCCCCOP(=O)(CCN(CCN)CCN)OCCCC.Cl.Cl.Cl.Cl.Cl.Cl (configuration not stated)	> 99
